Data taken from US9663523B2, “BET protein-inhibiting 5-aryltriazoleazepines” (BAYER PHARMA AKTIENGESELLSCHAFT, priority 2012, dated 2017).

What was measured:
B16F10 cells = test: Cell proliferation (alamarBlue), B16F10; format: cell-based; conditions: Mus musculus, B16-F10; melanoma cell line, 96 hours incubation
Experimental: (§1) The ability of the compounds according to the invention to inhibit the proliferation of various cell lines was determined.
(§2) Cell viability was determined by means of the alamarBlue® reagent (Invitrogen). The cells were sown at different densities (MOLM-13, LAPC-4, MOLP-8 and MDA-MB-231: 4000 cells/well; B16F10: 400 cells/well) in 100 μl of growth medium on 96-well microtitre plates. After overnight incubation at 37° C., the fluorescence values (CI values) were determined. The plates were then treated with various substance dilutions and incubated at 37° C. for 96 hours (MOLM-13, MDA-MB-231 and B16F10 cells), 120 hours (MOLP-8 cells) or 168 hours (LAPC-4 cells). Subsequently, the fluorescence values were determined (CO values). For the data analysis, the CI values were subtracted from the CO values and the results were compared between cells which had been treated with various dilutions of the substance or only with buffer solution.
(§3) The compounds according to the invention were tested in the cell lines in Table 2, which represent the indications specified by way of example:
(§4) The indications corresponding to the different cell lines can be found in Table 2.

MOLM-13 cells = test: Cell proliferation (alamarBlue), MOLM-13; format: cell-based; conditions: Homo sapiens, acute myeloid leukaemia cell line, 96 hours incubation
Experimental: as §1, §2, §3, §4

[1] = target: BRD4(1) (amino acids 44-168) (Homo sapiens (Human), UniProt O60885); test: BRD4 binding strength, TR-FRET (HTRF) assay of BRD4(1) / acetylated histone H4 peptide interaction; conditions: inhibition of BRD4(1)/Ac-H4 peptide interaction
Description: To assess the BRD4 binding strength of the compounds according to the invention, the ability thereof to inhibit the interaction between BRD4 and acetylated histone H4 in a dose-dependent manner was quantified. For this purpose, a time-resolved fluorescence resonance energy transfer (TR-FRET) assay was used, which measures the binding between N-terminally His6-tagged BRD4(1) (amino acids 44-168) and a synthetic acetylated histone H4 (Ac-H4) peptide with sequence […]-biotin. The recombinant BRD4 protein produced in-house according to Filippakopoulos et al., Cell, 2012, 149:214-231 was expressed in E. coli and purified by means of (Ni-NTA) affinity and (Sephadex G-75) size exclusion chromatography. The Ac-H4 peptide can be purchased, for example, from Biosyntan (Berlin, Germany). […] For this purpose, 100-fold concentrated solutions in DMSO were prepared by serial dilutions (1:3.4) of a 2 mM stock solution into a clear, 384-well microtitre plate (Greiner Bio-One, Frickenhausen, Germany). From this, 50 nl were transferred into a black test plate (Greiner Bio-One, Frickenhausen, Germany). […] This was followed by a 10-minute incubation step at 22° C. for the pre-equilibration of putative complexes between BRD4 and the substances. Subsequently, 3 μl of a solution of 1.67 times the concentration (in assay buffer) consisting of Ac-H4 peptide (83.5 nM) and TR-FRET detection reagents [16.7 nM anti-6His-XL665 and 3.34 nM streptavidin cryptate (both from Cisbio Bioassays, Codolet, France), and 668 mM potassium fluoride (KF)] were added. The mixture was then incubated in the dark at 22° C. for one hour and then at 4° C. overnight. The formation of BRD4/Ac-H4 complexes was determined by the measurement of the resonance energy transfer from the streptavidin-Eu cryptate to the anti-6His-XL665 antibody present in the reaction. […] The ratio of the emissions at 665 nm and at 622 nm was taken as an indicator of the amount of BRD4/Ac-H4 complexes formed.

LAPC-4 cells = test: Cell proliferation (alamarBlue), LAPC-4; format: cell-based; conditions: Homo sapiens, LAPC4; prostate carcinoma (androgen receptor-positive) cell line, 168 hours incubation
Experimental: as §1
as §2, with “values).” for “values). For the data analysis, the CI values were subtracted from the CO values and the results were compared between cells which had been treated with various dilutions of the substance or only with buffer solution.”
as §3, §4

MOLP-8 cells = test: Cell proliferation (alamarBlue), MOLP-8; format: cell-based; conditions: Homo sapiens, multiple myeloma cell line, 120 hours incubation
Experimental: as §1
as §2, with “values).” for “values). For the data analysis, the CI values were subtracted from the CO values and the results were compared between cells which had been treated with various dilutions of the substance or only with buffer solution.”
as §3, §4

| SMILES | IC50 (B16F10 cells) [nM] | IC50 (MOLM-13 cells) [nM] | IC50 [1] [nM] | IC50 (LAPC-4 cells) [nM] | IC50 (MOLP-8 cells) [nM] |
| --- | --- | --- | --- | --- | --- |
| CCOC(=O)CC1C=C(c2ccc(Cl)cc2)c2ccccc2-n2c(C)nnc21 (stereo in doubt) [Example 2, ethyl (−)-(4R)-[6-(4-chlorophenyl)-1-methyl-4H-[1,2,4]triazolo[4,3-a][1]benzazepin-4-yl]acetate] | 100 | 120 | 30 | 80 | – |
| Cc1nnc2n1-c1ccccc1C(c1ccc(Cl)cc1)=CC2CC(=O)N1C2CCC1CC2 (stereo in doubt) [Example 6, (−)-1 (7-azabicyclo[2.2.1]hept-7-yl)-2-[(4R)-6-(4-chlorophenyl)-1-methyl-4H-[1,2,4]triazolo[4,3-a][1]benzazepin-4-yl]ethanone] | 1020 | 670 | 600 | 1060 | – |
| Cc1nnc2n1-c1ccccc1C(c1ccc(Cl)cc1)=CC2CC(=O)OC(C)(C)C (stereo in doubt) [Example 9, tert-butyl (−)-[(4R)-6-(4-chlorophenyl)-1-methyl-4H-[1,2,4]triazolo[4,3-a][1]benzazepin-4-yl]acetate] | 430 | 430 | – | 310 | – |
| Cc1nnc2n1-c1ccccc1C(c1cccc(Cl)c1)=CC2CC(=O)N1CC2(COC2)C1 (stereo in doubt) [Example 11, (−)-2-[(4R)-6-(3-chlorophenyl)-1-methyl-4H-[1,2,4]triazolo[4,3-a][1]benzazepin-4-yl]-1-(2-oxa-6-azaspiro[3.3]hept-6-yl)ethanone] | 9470 | 4190 | 300 | 7890 | – |
| CC(=O)NNC(=O)CC1C=C(c2ccc(Cl)cc2)c2ccccc2-n2c(C)nnc21 (stereo in doubt) [Example 40, N′-acetyl-2-[(4R)-6-(4-chlorophenyl)-1-methyl-4H-[1,2,4]triazolo[4,3-a][1]benzazepin-4-yl]acetohydrazide] | – | 170 | 40 | – | 80 |
| Cc1nnc2n1-c1ccccc1C(c1ccc(Cl)cc1)=CC2Cc1nnc(-c2cccnc2)o1 (stereo in doubt) [Example 45, (−)-(4R)-6-(4-chlorophenyl)-1-methyl-4-{[5-(pyridin-3-yl)-1,3,4-oxadiazol-2-yl]methyl}-4H-[1,2,4]triazolo[4,3-a][1]benzazepine] | 60 | 100 | 50 | – | – |
| CCOC(=O)CC1C=C(c2ccc(Cl)cc2)c2ccccc2-n2c(C)nnc21 (centres unmarked) [Example 1, ethyl [6-(4-chlorophenyl)-1-methyl-4H-[1,2,4]triazolo[4,3-a][1]benzazepin-4-yl]acetate] | 300 | 330 | 180 | 260 | – |
| Cc1nnc2n1-c1ccccc1C(c1ccc(Cl)cc1)=CC2CC(=O)N1CC2(COC2)C1 (centres unmarked) [Example 3, 2-[6-(4-chlorophenyl)-1-methyl-4H-[1,2,4]triazolo[4,3-a][1]benzazepin-4-yl]-1-(2-oxa-6-azaspiro[3.3]hept-6-yl)ethanone] | 740 | 630 | 220 | 470 | – |
| Cc1nnc2n1-c1ccccc1C(c1ccc(Cl)cc1)=CC2CC(=O)N1C2CCC1CC2 (centres unmarked) [Example 5, 1-(7-azabicyclo[2.2.1]hept-7-yl)-2-[6-(4-chlorophenyl)-1-methyl-4H-[1,2,4]triazolo[4,3-a][1]benzazepin-4-yl]ethanone] | 870 | 1120 | 1400 | 620 | – |
| CCOC(=O)CC1C=C(c2cccc(Cl)c2)c2ccccc2-n2c(C)nnc21 (centres unmarked) [Example 7, ethyl [6-(3-chlorophenyl)-1-methyl-4H-[1,2,4]triazolo[4,3-a][1]benzazepin-4-yl]acetate] | 780 | 720 | 230 | 750 | – |
| Cc1noc(CC2C=C(c3ccc(Cl)cc3)c3ccccc3-n3c(C)nnc32)n1 (centres unmarked) [Example 34, 6-(4-chlorophenyl)-1-methyl-4-[(3-methyl-1,2,4-oxadiazol-5-yl)methyl]-4H-[1,2,4]triazolo[4,3-a][1]benzazepine] | – | 360 | 90 | – | – |
| Cc1nnc(CC2C=C(c3ccc(Cl)cc3)c3ccccc3-n3c(C)nnc32)o1 (centres unmarked) [Example 39, 6-(4-chlorophenyl)-1-methyl-4-[(5-methyl-1,3,4-oxadiazol-2-yl)methyl]-4H-[1,2,4]triazolo[4,3-a][1]benzazepine] | – | 320 | 40 | – | – |
| Cc1nnc(CC2C=C(c3ccc(Cl)cc3)c3ccccc3-n3c(C)nnc32)s1 (centres unmarked) [Example 41, 6-(4-chlorophenyl)-1-methyl-4-[(5-methyl-1,3,4-thiadiazol-2-yl)methyl]-4H-[1,2,4]triazolo[4,3-a][1]benzazepine] | – | 720 | 100 | – | 410 |
| Cc1nnc2n1-c1ccccc1C(c1ccc(Cl)cc1)=CC2Cc1nnc(C2CC2)o1 (centres unmarked) [Example 43, 6-(4-chlorophenyl)-4-[(5-cyclopropyl-1,3,4-oxadiazol-2-yl)methyl]-1-methyl-4H-[1,2,4]triazolo[4,3-a][1]benzazepine] | – | 370 | 130 | – | 210 |
| Cc1nnc2n1-c1ccccc1C(c1ccc(Cl)cc1)=CC2Cc1nnc(-c2cccnc2)o1 (centres unmarked) [Example 44, 6-(4-chlorophenyl)-1-methyl-4-{[5-(pyridin-3-yl)-1,3,4-oxadiazol-2-yl]methyl}-4H-[1,2,4]triazolo[4,3-a][1]benzazepine] | – | 420 | 90 | – | 220 |
| Cc1nc(CC2C=C(c3ccc(Cl)cc3)c3ccccc3-n3c(C)nnc32)no1 (centres unmarked) [Example 46, 6-(4-chlorophenyl)-1-methyl-4-[(5-methyl-1,2,4-oxadiazol-3-yl)methyl]-4H-[1,2,4]triazolo[4,3-a][1]benzazepine] | – | 270 | 80 | – | 140 |
| COc1ccc2c(c1)C(c1ccc(Cl)cc1)=CC(Cc1nnc(C)o1)c1nnc(C)n1-2 (centres unmarked) [Example 47, 6-(4-chlorophenyl)-8-methoxy-1-methyl-4-[(5-methyl-1,3,4-oxadiazol-2-yl)methyl]-4H-[1,2,4]triazolo[4,3-a][1]benzazepine] | – | 150 | 50 | – | 90 |
| Cc1nnc(CC2C=C(c3ccc(Cl)cc3)c3cc(-c4c(C)noc4C)ccc3-n3c(C)nnc32)o1 (centres unmarked) [Example 48, 6-(4-chlorophenyl)-8-(3,5-dimethyl-1,2-oxazol-4-yl)-1-methyl-4-[(5-methyl-1,3,4-oxadiazol-2-yl)methyl]-4H-[1,2,4]triazolo[4,3-a][1]benzazepine] | – | 1380 | 340 | – | 1620 |
| Cc1nnc2n1-c1ccc(OC(F)(F)F)cc1C(c1ccc(Cl)cc1)=CC2CC(=O)OC(C)(C)C (centres unmarked) [Example 49, tert-butyl [6-(4-chlorophenyl)-1-methyl-8-(trifluoromethoxy)-4H-[1,2,4]triazolo[4,3-a][1]benzazepin-4-yl]acetate] | 2200 | 1690 | – | – | 1890 |
| Cc1nnc2n1-c1ccc(OC(F)(F)F)cc1C(c1ccc(Cl)cc1)=C[C@H]2CC(=O)N1CC2(COC2)C1 [Example 51] | 580 | 390 | – | – | 360 |
